pEC50: −log10 of the molar value. Like-named read-outs stand apart in the source and are kept apart here.
How the values were obtained:
human GCGR = biological target: T1, human GCGR (Homo sapiens, UniProt P47871); assay: cAMP activity assay, cells expressing human GCGR; type: cell-based; settings: for GCGR/GLP1R ratio: Table 5, ratio of hGCGR EC50 to hGLP1R EC50;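 for all read-outs here: cAMP production read by luminescence after one hour of peptide exposure at room temperature, EC50 from logistic curve fit, native glucagon and GLP-1 as control peptides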
T1 construct: expressed in transfected cells; grown with Blasticidin and Hygromycin
Method: Activity of the incretin peptides or the conjugates at the Glucagon receptor (GCGR) and GLP-1 receptor (GLP1R) may be measured in a cAMP activity assay as follows.
Peptides are dissolved in 100% DMSO and serially diluted to generate 10 point titrations. The peptide solutions are then transferred into 384-well assay plates (150 nL/well). Assay ready frozen cells expressing human GLP1R or human GCGR are suspended in growth media consisting of DMEM medium (GIBCO), 10% FBS (GIBCO), 1×NEAA(GIBCO), 1×P/S (GIBCO), 10 μg/mL Blasticidin (GIBCO) and 200 μg/mL Hygromycin (GIBCO). […] The cell suspensions (15 μL) are then added to the assay plates containing the peptide solutions (30,000 cells/well for human GCGR; 10,000 cells/well for human GLP1R). The cells are incubated for one hour at room temperature in the dark.
Production of cAMP may be determined using HitHunterr cAMPXS kits (DiscoverX) following the manufacturer's protocol. The plates are incubated for overnight at room temperature in the dark. Luminescence may be measured using an EnVision Multilabel plate reader (Perkin Elmer). Native GLP-1 and Glucagon (Bachem) may be used as control peptides. EC50 values may be calculated using uses a 4 parameter logistic fit based on the Levenberg-Marquardt algorithm.

human GLP1R = human GLP1R (Homo sapiens, UniProt P43220); assay: cAMP activity assay, cells expressing human GLP1R; type: cell-based
human GLP1R, sequence (P43220 24-463): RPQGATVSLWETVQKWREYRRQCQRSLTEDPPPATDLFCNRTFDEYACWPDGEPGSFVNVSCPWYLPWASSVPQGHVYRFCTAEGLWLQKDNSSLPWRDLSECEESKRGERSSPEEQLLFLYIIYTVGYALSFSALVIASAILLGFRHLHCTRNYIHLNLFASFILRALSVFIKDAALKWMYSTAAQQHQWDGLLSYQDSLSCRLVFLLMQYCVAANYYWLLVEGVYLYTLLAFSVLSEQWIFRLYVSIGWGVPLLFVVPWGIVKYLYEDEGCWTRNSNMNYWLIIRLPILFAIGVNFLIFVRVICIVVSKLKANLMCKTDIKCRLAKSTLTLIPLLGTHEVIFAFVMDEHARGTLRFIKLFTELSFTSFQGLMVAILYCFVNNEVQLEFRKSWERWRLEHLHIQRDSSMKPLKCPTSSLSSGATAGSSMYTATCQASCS

T1 sequence (P47871 26-477): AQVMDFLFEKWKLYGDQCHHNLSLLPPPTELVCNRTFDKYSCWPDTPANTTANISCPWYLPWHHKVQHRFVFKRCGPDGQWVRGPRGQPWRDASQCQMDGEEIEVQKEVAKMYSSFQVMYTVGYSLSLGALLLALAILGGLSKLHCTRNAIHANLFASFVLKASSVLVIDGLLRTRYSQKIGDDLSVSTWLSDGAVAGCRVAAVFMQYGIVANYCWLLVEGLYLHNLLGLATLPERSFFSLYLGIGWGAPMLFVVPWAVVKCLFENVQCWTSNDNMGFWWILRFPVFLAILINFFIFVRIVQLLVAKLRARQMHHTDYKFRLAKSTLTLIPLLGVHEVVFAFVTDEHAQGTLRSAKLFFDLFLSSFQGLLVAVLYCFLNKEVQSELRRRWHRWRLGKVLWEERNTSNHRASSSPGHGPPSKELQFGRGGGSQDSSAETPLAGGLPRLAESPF

Structure (SMILES)	pEC50 (human GCGR; Table 5, incretin peptides, cAMP, read-out: hGCGR_EC50)	GCGR/GLP1R ratio (human GCGR)	pEC50 (human GLP1R; Table 5, incretin peptides, cAMP, read-out: hGLP1R EC50)	pEC50 (human GLP1R)	pEC50 (human GCGR)
CC(C)C[C@H](NC(=O)[C@H](Cc1c[nH]c2ccccc12)NC(=O)[C@H](CCC(N)=O)NC(=O)[C@@H](NC(=O)[C@H](Cc1ccccc1)NC(=O)[C@H](CC(=O)O)NC(=O)[C@H](CCC(N)=O)NC(=O)[C@H](C)NC(=O)[C@H](C)NC(=O)[C@H](CCCNC(=N)N)NC(=O)C(C)(C)NC(=O)[C@H](CC(=O)O)NC(=O)[C@H](CC(C)C)NC(=O)[C@H](Cc1ccc(O)cc1)NC(=O)[C@H](CCCCN)NC(=O)[C@H](CO)NC(=O)[C@H](Cc1ccc(O)cc1)NC(=O)[C@H](CC(=O)O)NC(=O)[C@H](CO)NC(=O)[C@@H](NC(=O)[C@H](Cc1ccccc1)NC(=O)[C@@H](NC(=O)CNC(=O)[C@H](CCC(N)=O)NC(=O)C(C)(C)NC(=O)[C@@H](N)Cc1c[nH]cn1)[C@@H](C)O)[C@@H](C)O)C(C)C)C(=O)N[C@@H](CC(C)C)C(=O)N[C@@H](CC(=O)O)C(=O)N[C@H](C(=O)N[C@@H](CCCCN)C(=O)N[C@@H](CCCCN=[N+]=[N-])C(N)=O)[C@@H](C)O [PEP18]	9.68	6.7	10.52		
CCCCCCCCCCCCCCCC(=O)N[C@@H](CCC(=O)N[C@@H](CCC(=O)NCCCC[C@H](NC(=O)[C@H](CC(=O)O)NC(=O)[C@H](CO)NC(=O)[C@@H](NC(=O)[C@H](Cc1ccccc1)NC(=O)[C@@H](NC(=O)CNC(=O)[C@H](CCC(N)=O)NC(=O)C(C)(C)NC(=O)[C@@H](N)Cc1c[nH]cn1)[C@@H](C)O)[C@@H](C)O)C(=O)N[C@@H](CO)C(=O)N[C@@H](CCCCN)C(=O)N[C@@H](Cc1ccc(O)cc1)C(=O)N[C@@H](CC(C)C)C(=O)N[C@@H](CC(=O)O)C(=O)NC(C)(C)C(=O)N[C@@H](CCCNC(=N)N)C(=O)N[C@@H](C)C(=O)N[C@@H](C)C(=O)N[C@@H](CCC(N)=O)C(=O)N[C@@H](CC(=O)O)C(=O)N[C@@H](Cc1ccccc1)C(=O)N[C@H](C(=O)N[C@@H](CCC(N)=O)C(=O)N[C@@H](Cc1c[nH]c2ccccc12)C(=O)N[C@@H](CC(C)C)C(=O)N[C@@H](CC(C)C)C(=O)N[C@@H](CC(=O)O)C(=O)N[C@H](C(=O)N[C@@H](CCCCN)C(=O)N[C@@H](CCCCN=[N+]=[N-])C(N)=O)[C@@H](C)O)C(C)C)C(=O)O)C(=O)O [PEP19]		1.4		9.47	
CCCCCCCCCCCCCCCC(=O)N[C@@H](CCC(=O)N[C@@H](CCC(=O)NCCCC[C@H](NC(=O)[C@H](CC(=O)O)NC(=O)[C@H](CO)NC(=O)[C@@H](NC(=O)[C@H](Cc1ccccc1)NC(=O)[C@@H](NC(=O)CNC(=O)[C@H](CCC(N)=O)NC(=O)C(C)(C)NC(=O)[C@@H](N)Cc1c[nH]cn1)[C@@H](C)O)[C@@H](C)O)C(=O)N[C@@H](CO)C(=O)N[C@@H](CCCCN)C(=O)N[C@@H](Cc1ccc(O)cc1)C(=O)N[C@@H](CC(C)C)C(=O)N[C@@H](CC(=O)O)C(=O)NC(C)(C)C(=O)N[C@@H](CCCNC(=N)N)C(=O)N[C@@H](C)C(=O)N[C@@H](C)C(=O)N[C@@H](CCC(N)=O)C(=O)N[C@@H](CC(=O)O)C(=O)N[C@@H](Cc1ccccc1)C(=O)N[C@H](C(=O)N[C@@H](CCC(N)=O)C(=O)N[C@@H](Cc1c[nH]c2ccccc12)C(=O)N[C@@H](CC(C)C)C(=O)N[C@@H](CC(C)C)C(=O)N[C@@H](CC(=O)O)C(=O)N[C@H](C(=O)N[C@@H](CCCCN)C(=O)N[C@@H](CCCCNC(=O)COCCOCCNC(=O)CCCCN=[N+]=[N-])C(N)=O)[C@@H](C)O)C(C)C)C(=O)O)C(=O)O [PEP20]		2.0		10.30	10.00
CC(C)C[C@H](NC(=O)[C@H](Cc1ccc(O)cc1)NC(=O)[C@H](CCCCN)NC(=O)[C@H](CO)NC(=O)[C@H](Cc1ccc(O)cc1)NC(=O)[C@H](CC(=O)O)NC(=O)[C@H](CO)NC(=O)[C@@H](NC(=O)[C@H](Cc1ccccc1)NC(=O)[C@@H](NC(=O)CNC(=O)[C@H](CCC(N)=O)NC(=O)[C@@H](CO)NC(=O)[C@@H](N)Cc1c[nH]cn1)[C@@H](C)O)[C@@H](C)O)C(=O)N[C@@H](CC(=O)O)C(=O)N[C@@H](CCC(=O)O)C(=O)N[C@@H](CCCNC(=N)N)C(=O)N[C@@H](C)C(=O)N[C@@H](C)C(=O)N[C@@H](CCCCNC(=O)COCCOCCNC(=O)COCCOCCNC(=O)CC[C@H](NC(=O)CCCCCCCCCCCCCCCN=[N+]=[N-])C(=O)O)C(=O)N[C@@H](CC(=O)O)C(=O)N[C@@H](Cc1ccccc1)C(=O)N[C@H](C(=O)N[C@@H](CCC(N)=O)C(=O)N[C@@H](Cc1c[nH]c2ccccc12)C(=O)N[C@@H](CC(C)C)C(=O)N[C@@H](CC(C)C)C(=O)N[C@@H](CC(=O)O)C(=O)N[C@H](C(N)=O)[C@@H](C)O)C(C)C [PEP26]		1.0		9.92	9.92
CC(C)C[C@H](NC(=O)[C@H](Cc1ccc(O)cc1)NC(=O)[C@H](CCCCN)NC(=O)[C@H](CO)NC(=O)[C@H](Cc1ccc(O)cc1)NC(=O)[C@H](CC(=O)O)NC(=O)[C@H](CO)NC(=O)[C@@H](NC(=O)[C@H](Cc1ccccc1)NC(=O)[C@@H](NC(=O)CNC(=O)[C@H](CCC(N)=O)NC(=O)[C@@H](CO)NC(=O)[C@@H](N)Cc1c[nH]cn1)[C@@H](C)O)[C@@H](C)O)C(=O)N[C@@H](CC(=O)O)C(=O)N[C@@H](CCC(=O)O)C(=O)N[C@@H](CCCNC(=N)N)C(=O)N[C@@H](C)C(=O)N[C@@H](C)C(=O)N[C@@H](CCC(N)=O)C(=O)N[C@@H](CCCCNC(=O)COCCOCCNC(=O)COCCOCCNC(=O)CC[C@H](NC(=O)CCCCCCCCCCCCCCCN=[N+]=[N-])C(=O)O)C(=O)N[C@@H](Cc1ccccc1)C(=O)N[C@H](C(=O)N[C@@H](CCC(N)=O)C(=O)N[C@@H](Cc1c[nH]c2ccccc12)C(=O)N[C@@H](CC(C)C)C(=O)N[C@@H](CC(C)C)C(=O)N[C@@H](CC(=O)O)C(=O)N[C@H](C(N)=O)[C@@H](C)O)C(C)C [PEP27]		6.5		10.22	9.41
CC(C)C[C@H](NC(=O)[C@H](Cc1c[nH]c2ccccc12)NC(=O)[C@H](CCC(N)=O)NC(=O)[C@@H](NC(=O)[C@H](Cc1ccccc1)NC(=O)[C@H](CC(=O)O)NC(=O)[C@H](CCC(N)=O)NC(=O)[C@H](C)NC(=O)[C@H](C)NC(=O)[C@H](CCCNC(=N)N)NC(=O)C(C)(C)NC(=O)[C@H](CC(=O)O)NC(=O)[C@H](CC(C)C)NC(=O)[C@H](Cc1ccc(O)cc1)NC(=O)[C@H](CCCCN)NC(=O)[C@H](CO)NC(=O)[C@H](Cc1ccc(O)cc1)NC(=O)[C@H](CC(=O)O)NC(=O)[C@H](CO)NC(=O)[C@@H](NC(=O)[C@H](Cc1ccccc1)NC(=O)[C@@H](NC(=O)CNC(=O)[C@H](CCC(N)=O)NC(=O)C(C)(C)NC(=O)[C@@H](N)Cc1c[nH]cn1)[C@@H](C)O)[C@@H](C)O)C(C)C)C(=O)N[C@@H](CC(C)C)C(=O)N[C@@H](CC(=O)O)C(=O)N[C@H](C(=O)N[C@@H](CCCCN)C(=O)N[C@@H](CCCCNC(=O)COCCOCCNC(=O)COCCOCCNC(=O)CC[C@H](NC(=O)CCCCCCCCCCCCCCCN=[N+]=[N-])C(=O)O)C(N)=O)[C@@H](C)O [PEP28]		1.1		9.80	9.77
